The values below come from article PMC5931107, “Clinical pharmacodynamic/exposure characterisation of the multikinase inhibitor ilorasertib (ABT-348) in a phase 1 dose-escalation trial” (British Journal of Cancer, 2018).

One data set concerns Aurora C. Also noted: method as in PMID 22935731. The following applies: 1 mM ATP; read-out: Biochemical IC50 (95% confidence limits); cited from earlier work.
The next data set concerns Aurora B (Y156H). Also noted: method as in PMID 22935731. The conditions noted are these: Y156H mutant, 1 mM ATP; read-out: Biochemical IC50 (95% confidence limits); cited from earlier work.
The next data set deals with c-KIT. Also noted: method as in PMID 22935731. The conditions noted are these: KIT cellular phosphorylation, ligand stimulated; read-out: Cellular PD marker IC50 (95% confidence limits); cited from earlier work.
The nature of data set [1]: Dose escalation: dose-limiting toxicities and MTD. The data set is classed as in vivo. The source says:
Dose escalation was first conducted in Arm I and subsequently in Arms II and III. […] The pre-specified DLT criteria included any of the following events graded according to the Common Terminology Criteria for Adverse Events (CTCAE) version 4.0 considered ‘possibly’ or ‘probably’ related to the administration of ilorasertib in cycle 1: grade 4 absolute neutrophil count (ANC) decrease for >7 days or grade ≥ 3 ANC decrease with fever; grade 4 platelet count decrease; grade ≥ 3 proteinuria; grade 4 infusion reaction; grade ≥ 3 asthenia/fatigue; grade 3 nausea/vomiting for ≥48 h or diarrhoea for ≥72 h despite maximum supportive care; grade ≥ 2 neurotoxicity; unexpected grade 2 toxicity which required dose modification or delay of ≥1 week. Given the known adverse effects of VEGFR2 inhibition, specific criteria for hypertension were included: >150/100 mm Hg despite 2 weeks of clinically appropriate intervention, or severe hypertension at any blood pressure reading defined as systolic >200 mm Hg or diastolic > 110 mm Hg, or symptomatic hypertension at any reading; and for decline in left ventricular ejection fraction included: absolute decline >20% from baseline and/or a reduction to <39%. Except for the above categories, all grade ≥ 3 adverse events (AEs) without a definitive alternative etiology were also considered DLTs. AEs detected or worsened in cycle 2 and beyond could be incorporated into dose-escalation decisions at discretion of the investigators and study team.
The MTD was to be continually re-estimated by a logistic regression model as the dose at which the predicted DLT rate would be 30%. For the three arms, dose-escalation decisions were made after the patient(s) in a cohort completed dosing in cycle 1.
In Arm I, dosing commenced at 10 mg PO QD and was escalated to 180 mg PO QD. This initial starting dose was calculated using 1/6 of the highest non-severely toxic dose in dogs converted to human equivalent dose, using body surface area scaling and assuming a 60-kg human. Because of uncertainty of food effects on pharmacokinetics and the […] schedule, treatment was administered in a fasted state. […] Enrolment to Arm I was discontinued, on the basis of the protocol-specified continual reassessment method on which MTD was to be determined. […] This schedule was selected due to the anticipated lower maximum observed plasma concentration (Cmax) and greater total exposure, and the possibility that tolerability would be improved under these conditions. Dose escalation proceeded in Arm II, starting at 40 mg PO BID, and stopped at the 340-mg PO BID dose, since this dose met the protocol criteria for exceeding the MTD. The first dose was administered in the fasted state. The second dose of the treatment day was administered at least 4 h after a small meal. […]

A further data set relates to VEGFR1. The arrangement: method as in PMID 22935731. The following applies: 1 mM ATP; read-out: Biochemical IC50 (95% confidence limits); cited from earlier work.

With `Nc1ncc(-c2cnn(CCO)c2)c2scc(-c3ccc(NC(=O)Nc4cccc(F)c4)cc3)c12` [ilorasertib, Ilorasertib], the IC50 in the data set on Aurora C was 1 nM; in the data set with Aurora B (Y156H), […]; with c-KIT it was 45 nM; in the data set with VEGFR1 it was 1 nM. Also, the “Dose that met the protocol criteria for exceeding the MTD” value in data set [1] (Arm I, PO QD) came out at 180 mg; in data set [1] (Arm II, PO BID), 340 mg. Moreover, the “Patients who experienced DLTs” value in data set [1] (human, in vivo, 1 cycle) is on record as 10%. In addition, the “Total number of DLTs” value in data set [1] (in vivo) is listed as “ten”.

Broadly, the IC50 is the concentration needed to halve the response being measured.
